# Experimental data reported in US5597798A, “Taxol and epidermal growth factor used to enhance treatment of ovarian cancer” (The Regents of the University of California, priority 1994, dated 1997).
# Read-outs that look alike come from different tables or passages of the source.
# What was measured:
# [1] = system: 2008 human ovarian carcinoma cells; test: Colony forming assay, effect of EGF on sensitivity to cytotoxic agents; assay type: cell-based
# cellular cAMP = test: Determination of cellular cAMP content; assay type: cell-based; conditions: for cAMP level, 10 min. mean: 10 min treatment; for cAMP level, 10 min. mean / cAMP level, 60 min. mean: means of 6 experiments; for cAMP level, 60 min. mean: 60 min treatment
# 2008/C13*5 cells = test: Colonogenic assay, effect of TPA on DDP sensitivity of DDP-resistant cells; assay type: cell-based, human; conditions: TPA and DDP concurrently for 1 h
# Text: The following cell lines were used in these studies: 2008 human ovarian carcinoma (Disaia, et al., Am. J. Obstet. Gynecol. 114:978 (1972)), COLO 316 human ovarian carcinoma (Woods et al., Cancer Res. 39:4449 (1979)), a DDP resistant variant 2008/C13*, derived from the parent 2008 cell line (Andrews, et al., Cancer Res. 45:6250 (1985)), A549 non-small cell lung cancer (Lieber et al., Int. J. Cancer 17:62 (1976)), NCI-H520 squamous cell lung cancer (Brower et al., Cancer Res. 46: 798 (1986)), NCI-H596 adenosquamous lung cancer (Banks-Schlegel et al., Cancer Res. 45: 1187 (1985)), UMC 31 small cell lung cancer cells (Graziano et al., Genes, Chromosomes and Cancer 3: 283 (1991)), GLC4 small cell lung cancer cells (Zijlstra et al., Cancer Res. 47: 1780 (1987)), UMCC10b head and neck cancer cells (Krause et al., Arch. Otolayngol. 107: 703 (1981)), 5637 bladder cancer cells (Fogh et al., J. Natl. Cancer Inst. 58: 209 (1977)), MIA PaCa-2 pancreatic cancer cells (Yunis et al., Int. […]
# Colony forming assays were used to assess the effect of each drug on the sensitivity of various tumor cell lines to cytotoxic agents (Andrews, et al., Chem.-Biol. Interact 65:51-58 (1988)). […] Colonies of over 60 cells were counted macroscopically.
# The 2008/C13*5 cell line is 8-10-fold resistant to DDP. […] Drug cytotoxicity was determined by colonogenic assay on plastic dishes. […]
# 2008 cells [2] = test: Cellular accumulation of [195mPt]DDP; assay type: cell-based, human; conditions: concurrent 60 min
# Procedure: Cell-associated ^195m Pt was determined by as a measure of DDP accumulation. For DDP accumulation studies, subconfluent monolayers were treated with 37° C. RPMI 1640 medium containing 20 μM [^195m Pt]-DDD. The dishes were immediately returned to the incubater. After 1 h incubation, the medium was aspirated, the cells were washed rapidly with 4° C. PBS 4 times. Two ml of 1N NaOH was added and the cells allowed to digest overnight. A forty μl aliquot was used for determination of protein content by the method of Bradford (Bradford, Anal. Biochem. 72:248-254 (1976)), and the remaining […] was counted in glass tubes on a Trak 1191 gamma counter (Tracer Analytic, EIK Grove Village, Ill.). Columns represent the mean values of 3 experiments performed with duplicate cultures. The bars represent the standard deviation.
# Cultured 2008 cells were treated concurrently with [^195m Pt]DDP and TPA for 60 min. A vehicle control consisting of an appropriate dilution of acetone was run concurrently. […] Cells treated with medium alone contained 140±13 pmol/mg of protein, whereas those treated with the acetone control contained 141±7 pmol/mg of protein, and those treated with TPA contained 143±21 pmol/mg of protein.
# [3] = Colony formation, TPA sensitization to DDP with cycloheximide (CHM); assay type: cell-based; conditions: 2 μM DDP with 10^-7 M TPA 1 h
# human KB carcinoma cells = conditions: TPA treatment; cited from earlier work
# 2008 cells [4] = test: Colony forming (colonogenic) assay, effect of TPA, phorbol and staurosporine on DDP sensitivity
# human EGF receptor = test: Expression of human EGF receptor in transfected C127 cells (monoclonal antibody 528 staining); assay type: cell-based; conditions: Desferrioxamine 10 μM for 60 hs
# [5] = system: C127 mouse fibroblasts transfected with the human EGF receptor gene; test: Tetrazolium (MTT) growth rate assay, DDP sensitivity; assay type: cell-based
# Procedure: Expression of the transferrin receptor gene is normally under the control of the transferrin […], and is regulated by iron (Owen and Kuhn, EMBO J. 6:1287 (1987)). Incubation with the iron chelator desferrioxamine induces expression of the transferrin receptor gene (Bridges and Cudkowicz, J. Biol. Chem. 259:12970 (1984)). […] Closed squares, transfected […] mouse fibroblasts pretreated with desferrioxamine; open squares, untreated cells. […] Louis, Mo.) was prepared at 1 mg/ml in DME media and on day 7, 50 μl are added to the microculture wells. After a 4 h incubation at 37° C., all the media was removed from each well, and 150 μl of 100% DMSO (dimethyl sulfoxide) was added to solubilize the MTT-formazan product. After thorough mixing, absorbance at 540 nm was measured with a Molecular Devices Vmax Kinetic microplate reader.
# [6] = EGF and the cytotoxic agent concurrently for 1 h
# [7] = Homo sapiens, Ovarian carcinoma cell, 1 h, read-out: IC50 in absence of EGF
# [8] = mean ± SD of at least 3 experiments
# [9] = read-out: IC50 in presence of EGF, EGF and the cytotoxic agent concurrently for 1 h
structure (smiles),measurement,setting,value
O=c1[nH]cc(F)c(=O)[nH]1 [5-fluorouracil],effect of EGF on sensitivity of 2008 cells to the agent (in words),[1]; [6],significant increase in sensitivity
same,IC50,[1]; [7],20 µM
same,Dose modifying factor (ratio of the IC50 values in control and EGF-treated cells),[1]; [8],1.8 ± 0.3
same,IC50,[1]; [9],11 µM
C=C[C@@]1(C)CC(=O)[C@]2(O)[C@@]3(C)[C@@H](O)CCC(C)(C)[C@@H]3[C@H](O)[C@H](OC(C)=O)[C@@]2(C)O1 [Forskolin],increase in cAMP content,cellular cAMP,297 fold
same,"cAMP level, 10 min. mean",cellular cAMP,2135.0 pmol/mg protein
same,"cAMP level, 60 min. mean",cellular cAMP,6365.0 pmol/mg protein
CCCCCCCCCCCCCC(=O)O[C@@H]1[C@@H](C)[C@@]2(O)[C@@H](C=C(CO)C[C@]3(O)C(=O)C(C)=C[C@@H]23)[C@H]2C(C)(C)[C@]12OC(C)=O [TPA],sensitization to DDP,2008/C13*5 cells,2.6 fold
same,effect of TPA on cellular accumulation of [195mPt]DDP,2008 cells [2],neither the acetone nor the TPA produced any effect on cellular accumulation
same,"cAMP level, 10 min. mean",cellular cAMP,2.7 pmol/mg protein
same,"cAMP level, % of the untreated control",cellular cAMP; 60 min,38%
same,"cAMP level, % of the vehicle control",cellular cAMP; 60 min,65%
same,"cAMP level, 60 min. mean",cellular cAMP,8.2 pmol/mg protein
same,"survival, % of control (S.D.)",[3]; absence of CHM,33±5%
same,"survival, % of controls (S.D.)",[3]; presence of CHM 5 μg/ml,41±7%
same,decrease in sensitivity to etoposide and vincristine,human KB carcinoma cells,50%
same,"interaction between TPA and DDP, median effect analysis",2008 cells [4],truly synergistic
same,loss of TPA sensitization,"2008 cells [4]; 0.1 μM TPA 1 h, 2 μM DDP 1 h",largely disappeared by 7 h
same,"survival, % of control",2008 cells [4]; 2 μM DDP plus 0.1 μM TPA,38±16%
same,survival normalized to 2 μM DDP alone = 100%,"2008 cells [4]; 2 μM DDP plus TPA, no staurosporine",44%
same,DDP sensitization after TPA pretreatment,2008 cells [4]; 24-h exposure to 0.1 μM TPA followed by 1-h exposure to DDP,a similar degree of sensitization was observed
same,increase in DDP sensitivity,2008 cells [4]; TPA and DDP concurrently for 1 h,2.5 fold
same,toxicity of TPA by itself,2008 cells [4]; concentrations,did not cause any toxicity by itself
same,DDP sensitization under continuous exposure,2008 cells [4]; continuous exposure to both TPA and DDP for the full period of colony formation,no change in DDP sensitivity was evident
N.N.O=C([O-])C1(C(=O)[O-])CCC1.[Pt+2] [carboplatin],effect of EGF on sensitivity of 2008 cells to the agent (in words),[1]; [6],significant increase in sensitivity
same,Dose modifying factor (ratio of the IC50 values in control and EGF-treated cells),[1]; [8],1.8 ± 0.4
same,IC50,"[1]; read-out: IC50 in absence of EGF, cytotoxic agent for 1 h, no EGF",120 µM
same,IC50,[1]; [9],67 µM
CC(=O)N(O)CCCCCNC(=O)CCC(=O)N(O)CCCCCNC(=O)CCC(=O)N(O)CCCCCN [desferrioxamine],increase in number of human EGF receptors,human EGF receptor,approximately 2 fold
same,modulation of DDP sensitivity in the absence of EGF,"[5]; 10 μM desferrioxamine, no EGF",did not modulate the sensitivity of transfected C127 cells in the absence of EGF
same,toxicity to transfected C127 mouse fibroblasts,"[5]; 10 μM, prolonged incubation for 2 weeks",non-toxic
same,increase in sensitivity to the cytotoxicity of DDP vs control cells,"[5]; desferrioxamine treated cells, in the presence of 10 nM EGF",approximately 2 fold
COc1cccc2c1C(=O)c1c(O)c3c(c(O)c1C2=O)C[C@@](O)(C(=O)CO)C[C@@H]3O[C@H]1C[C@H](N)[C@H](O)[C@H](C)O1 [doxorubicin],effect of EGF on sensitivity of 2008 cells to the agent (in words),[1]; [6],no significant effect
same,IC50,[1]; [7],1.5 µM
same,Dose modifying factor (ratio of the IC50 values in control and EGF-treated cells),[1]; [8],1.1 ± 0.2
same,IC50,[1]; [9],1.4 µM
N[C@@H](Cc1ccc(N(CCCl)CCCl)cc1)C(=O)O [melphalan],Dose modifying factor (ratio of the IC50 values in control and EGF-treated cells),[1],1.4 ± 0.4
same,effect of EGF on sensitivity of 2008 cells to the agent (in words),[1],the effect did not reach the level of statistical significance
same,IC50,[1]; [7],12 µM
same,IC50,[1]; read-out: IC50 in presence of EGF,9 µM
CC1=C[C@H]2[C@@]3(O)[C@H](C)[C@@H](O)[C@]4(O)[C@H]([C@@H]3C=C(CO)C[C@]2(O)C1=O)C4(C)C [phorbol],effect of phorbol on DDP sensitivity,2008 cells [4]; 10^7 M phorbol for 1-h with DDP,"failed to enhance DDP sensitivity, and, in fact slightly reduced it"
CN[C@@H]1C[C@H]2O[C@@](C)([C@@H]1OC)n1c3ccccc3c3c4c(c5c6ccccc6n2c5c31)C(=O)NC4 [staurosporine],effect of staurosporine by itself on sensitivity to DDP,2008 cells [4]; control experiments,did not enhance or inhibit sensitivity to DDP
same,"survival, % of that produced by DDP alone","2008 cells [4]; staurosporine pretreatment 1 h, then DDP and TPA (all three agents)",96%
CC(=O)O[C@H]1C(=O)[C@@]2(C)[C@H]([C@H](OC(=O)c3ccccc3)[C@]3(O)C[C@H](OC(=O)[C@H](O)[C@@H](NC(=O)c4ccccc4)c4ccccc4)C(C)=C1C3(C)C)[C@]1(OC(C)=O)CO[C@@H]1C[C@@H]2O [taxol],effect of EGF on sensitivity of 2008 cells to the agent (in words),[1]; [6],significant increase in sensitivity
same,IC50,[1]; [7],0.01 µM
same,IC50,"[1]; Homo sapiens, Ovarian carcinoma cell, 1 h, read-out: IC50 in presence of EGF",0.007 µM
same,Dose modifying factor (ratio of the IC50 values in control and EGF-treated cells),[1]; [8],1.4 ± 0.1
